Measured values taken from US8927500B2, “Peptidomimetic macrocycles” (Aileron Therapeutics, Inc., priority 2012, dated 2015).
Read-outs that look alike come from different tables or passages of the source.

Tests used:
[1] = target: MDM2 (Homo sapiens, UniProt Q00987); test: Competitive fluorescence polarization assay for MDM2; format: binding; conditions: competitive FP assay, MDM2
[2] = target: T1, MDMX (Homo sapiens, UniProt O15151); test: Competitive fluorescence polarization assay for MDMX; format: binding; conditions: competitive FP assay
T1 sequence (O15151 1-125): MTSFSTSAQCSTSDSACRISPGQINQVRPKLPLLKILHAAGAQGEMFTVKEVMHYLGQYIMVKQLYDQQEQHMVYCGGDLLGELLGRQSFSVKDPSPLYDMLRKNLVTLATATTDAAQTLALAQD

[3] = tested on: SJSA-1 cells; test: Cell lysis by peptidomimetic macrocycles (LDH release); format: cell-based; conditions: 1 h at 37C
[4] = tested on: Caspase 3; test: Caspase 3 detection assay in SJSA1 cells; format: cell-based; conditions: 48 h, Caspase 3 activation over DMSO-treated cells; for caspase 0.3 uM: 0.3 uM peptide; for caspase 3 uM: 3 uM peptide; for caspase 10 uM: 10 uM peptide; for caspase 30 uM: 30 uM peptide; for caspase 1 uM: 1 uM peptide

MDM2, sequence (Q00987 1-125): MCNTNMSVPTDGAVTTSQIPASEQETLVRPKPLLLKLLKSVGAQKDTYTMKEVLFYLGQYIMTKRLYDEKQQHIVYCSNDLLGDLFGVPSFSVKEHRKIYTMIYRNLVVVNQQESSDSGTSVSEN

CC[C@H](C)[C@H](NC(=O)[C@H](C)NC(=O)[C@H](C)NC(=O)[C@]1(C)CCCC=CCCCCCC[C@@](C)(NC(=O)[C@H](Cc2ccccc2)NC(=O)[C@@H](NC(=O)[C@H](CC(C)C)NC(C)=O)[C@@H](C)O)C(=O)N[C@@H](C)C(=O)N[C@@H](Cc2ccc(O)cc2)C(=O)N[C@@H](Cc2c[nH]c3ccccc23)C(=O)N[C@@H](C)C(=O)N[C@@H](C)C(=O)N[C@@H](CC(C)C)C(=O)N1)C(=O)N[C@H](C)C(N)=O (single isomer, unassigned) [compound 203]
IC50 ([1]; read-out: IC50 (MDM2)): 10 to 100 nM | Ki ([1]; read-out: Ki (MDM2)): < 10 nM | IC50 ([2]; read-out: IC50 (MDMX)): 100 to 1000 nM | Ki ([2]; read-out: Ki (MDMX)): 10 to 100 nM | 6.25 uM % Lysed cells (1 h LDH) [3]: 0% | 25 uM % Lysed cells (1 h LDH) [3]: 2% | 50 uM % Lysed cells (1 h LDH) [3]: 2% | caspase 0.3 uM [4]: 1 | caspase 3 uM [4]: 3 | caspase 10 uM [4]: 12 | caspase 30 uM [4]: 10

CC(=O)N[C@@H](CC(C)C)C(=O)N[C@H](C(=O)N[C@@H](Cc1ccccc1)C(=O)N[C@]1(C)CCCCCCC=CCCC[C@@](C)(C(=O)N[C@@H](C)C(=O)N[C@@H](C)C(=O)N[C@@H](Cc2ccccc2)C(=O)N[C@H](C)C(N)=O)NC(=O)[C@H](CC(C)C)NC(=O)[C@H](CCC(N)=O)NC(=O)[C@H](C)NC(=O)[C@H](Cc2c[nH]c3ccccc23)NC(=O)[C@H](Cc2ccc(O)cc2)NC(=O)[C@H](CCC(=O)O)NC1=O)[C@@H](C)O (single isomer, unassigned) [compound 218]
IC50 ([1]; read-out: IC50 (MDM2)): < 10 nM | Ki ([1]; read-out: Ki (MDM2)): < 10 nM | IC50 ([2]; read-out: IC50 (MDMX)): 100 to 1000 nM | Ki ([2]; read-out: Ki (MDMX)): 10 to 100 nM | 6.25 uM % Lysed cells (1 h LDH) [3]: 0% | 25 uM % Lysed cells (1 h LDH) [3]: −4% | 50 uM % Lysed cells (1 h LDH) [3]: 1% | caspase 0.3 uM [4]: 1 | caspase 3 uM [4]: 2 | caspase 10 uM [4]: 8 | caspase 30 uM [4]: 18

CC(=O)N[C@@H](CC(C)C)C(=O)N[C@H](C(=O)N[C@@H](Cc1ccccc1)C(=O)N[C@]1(C)CCCCCCC=CCCC[C@@](C)(C(=O)N[C@@H](C)C(=O)N[C@@H](C)C(=O)N[C@H](C(=O)N[C@H](C)C(N)=O)C(C)C)NC(=O)[C@H](CC(C)C)NC(=O)[C@H](CCC(N)=O)NC(=O)[C@H](C)NC(=O)[C@H](Cc2c[nH]c3ccccc23)NC(=O)[C@H](Cc2ccc(O)cc2)NC(=O)[C@H](CCC(=O)O)NC1=O)[C@@H](C)O (single isomer, unassigned) [compound 221]
IC50 ([1]; read-out: IC50 (MDM2)): < 10 nM | Ki ([1]; read-out: Ki (MDM2)): < 10 nM | IC50 ([2]; read-out: IC50 (MDMX)): 10 to 100 nM | Ki ([2]; read-out: Ki (MDMX)): 10 to 100 nM | 6.25 uM % Lysed cells (1 h LDH) [3]: 3% | 25 uM % Lysed cells (1 h LDH) [3]: 3% | 50 uM % Lysed cells (1 h LDH) [3]: 11% | caspase 0.3 uM [4]: 1 | caspase 3 uM [4]: 3 | caspase 10 uM [4]: 6 | caspase 30 uM [4]: 12

CC(=O)N[C@@H](CCC(=O)O)C(=O)N[C@H](C(=O)N[C@@H](Cc1ccccc1)C(=O)N[C@]1(C)CCCCCCC=CCCC[C@@](C)(C(=O)N[C@@H](C)C(=O)N[C@@H](C)C(=O)N[C@@H](C)C(=O)N[C@@H](C)C(=O)N[C@@H](C)C(=O)N[C@H](C)C(N)=O)NC(=O)[C@H](CC(C)C)NC(=O)[C@H](CCC(N)=O)NC(=O)[C@H](C)NC(=O)[C@H](Cc2c[nH]c3ccccc23)NC(=O)[C@H](Cc2ccc(O)cc2)NC(=O)[C@H](CCC(=O)O)NC1=O)[C@@H](C)O (single isomer, unassigned) [compound 341]
IC50 ([1]; IC50 (MDM2)): 10 to 100 nM | Ki ([1]; Ki (MDM2)): < 10 nM | IC50 ([2]; IC50 (MDMX)): 10 to 100 nM | Ki ([2]; Ki (MDMX)): < 10 nM | 6.25 uM % Lysed cells (1 h LDH) [3]: 0% | 25 uM % Lysed cells (1 h LDH) [3]: 0% | 50 uM % Lysed cells (1 h LDH) [3]: 0% | caspase 0.3 uM [4]: 3 | caspase 1 uM [4]: 8 | caspase 3 uM [4]: 11 | caspase 10 uM [4]: 14 | caspase 30 uM [4]: 21

CC(=O)N[C@@H](CC(C)C)C(=O)N[C@H](C(=O)N[C@@H](Cc1ccccc1)C(=O)N[C@]1(C)CCCCCCC=CCCC[C@@](C)(C(=O)N[C@@H](C)C(=O)N[C@@H](C)C(=O)N[C@@H](C)C(=O)N[C@@H](C)C(=O)N[C@@H](C)C(=O)N[C@@H](C)C(=O)N[C@H](C)C(N)=O)NC(=O)[C@H](CC(C)C)NC(=O)[C@H](CCC(N)=O)NC(=O)[C@H](C)NC(=O)[C@H](Cc2c[nH]c3ccccc23)NC(=O)[C@H](Cc2ccc(O)cc2)NC(=O)[C@H](CCC(=O)O)NC1=O)[C@@H](C)O (single isomer, unassigned) [compound 343]
IC50 ([1]; IC50 (MDM2)): 10 to 100 nM | Ki ([1]; Ki (MDM2)): < 10 nM | IC50 ([2]; IC50 (MDMX)): 10 to 100 nM | Ki ([2]; Ki (MDMX)): < 10 nM | 6.25 uM % Lysed cells (1 h LDH) [3]: 0% | 25 uM % Lysed cells (1 h LDH) [3]: 0% | 50 uM % Lysed cells (1 h LDH) [3]: 0% | caspase 0.3 uM [4]: 1 | caspase 1 uM [4]: 1 | caspase 3 uM [4]: 2 | caspase 10 uM [4]: 5 | caspase 30 uM [4]: 29

CC(=O)N[C@@H](CC(C)C)C(=O)N[C@H](C(=O)N[C@@H](Cc1ccccc1)C(=O)N[C@]1(C)CCCCCCC=CCCC[C@@](C)(C(=O)N[C@@H](C)C(=O)N[C@@H](C)C(=O)N[C@@H](C)C(=O)N[C@@H](C)C(=O)N[C@@H](C)C(=O)N[C@H](C)C(N)=O)NC(=O)[C@H](CC2CCC2)NC(=O)[C@H](CCC(N)=O)NC(=O)[C@H](C)NC(=O)[C@H](Cc2c[nH]c3ccccc23)NC(=O)[C@H](Cc2ccc(O)cc2)NC(=O)[C@H](CCC(=O)O)NC1=O)[C@@H](C)O (single isomer, unassigned) [compound 347]
IC50 ([1]; read-out: IC50 (MDM2)): 10 to 100 nM | Ki ([1]; read-out: Ki (MDM2)): < 10 nM | IC50 ([2]; read-out: IC50 (MDMX)): 10 to 100 nM | Ki ([2]; read-out: Ki (MDMX)): 10 to 100 nM | 6.25 uM % Lysed cells (1 h LDH) [3]: 0% | 25 uM % Lysed cells (1 h LDH) [3]: 0% | 50 uM % Lysed cells (1 h LDH) [3]: 0% | caspase 0.3 uM [4]: 2 | caspase 1 uM [4]: 3 | caspase 3 uM [4]: 5 | caspase 10 uM [4]: 8 | caspase 30 uM [4]: 29

CC(=O)N[C@@H](C)C(=O)N[C@@H](CC(C)C)C(=O)N[C@H](C(=O)N[C@@H](Cc1ccccc1)C(=O)N[C@]1(C)CCCCCCC=CCCC[C@@](C)(C(=O)N[C@@H](CO)C(=O)N[C@@H](C)C(=O)N[C@@H](C)C(=O)N[C@H](C)C(N)=O)NC(=O)[C@H](CC2CCC2)NC(=O)[C@H](CCC(N)=O)NC(=O)[C@H](C)NC(=O)[C@H](Cc2c[nH]c3ccccc23)NC(=O)[C@H](Cc2ccc(O)cc2)NC(=O)[C@H](CCC(=O)O)NC1=O)[C@@H](C)O (single isomer, unassigned) [compound 355]
IC50 ([1]; read-out: IC50 (MDM2)): < 10 nM | Ki ([1]; read-out: Ki (MDM2)): < 10 nM | IC50 ([2]; read-out: IC50 (MDMX)): 10 to 100 nM | Ki ([2]; read-out: Ki (MDMX)): < 10 nM | 6.25 uM % Lysed cells (1 h LDH) [3]: 0% | 25 uM % Lysed cells (1 h LDH) [3]: 0% | 50 uM % Lysed cells (1 h LDH) [3]: 0% | caspase 0.3 uM [4]: 1 | caspase 1 uM [4]: 4 | caspase 3 uM [4]: 11 | caspase 10 uM [4]: 13 | caspase 30 uM [4]: 30

CC(=O)N[C@@H](C)C(=O)N[C@@H](CC(C)C)C(=O)N[C@H](C(=O)N[C@@H](Cc1ccccc1)C(=O)N[C@]1(C)CCCCCCC=CCCC[C@@](C)(C(=O)N[C@@H](CO)C(=O)N[C@@H](C)C(=O)N[C@@H](C)C(=O)N[C@@H](C)C(=O)N[C@H](C)C(N)=O)NC(=O)[C@H](CC2CCC2)NC(=O)[C@H](CCC(N)=O)NC(=O)[C@H](C)NC(=O)[C@H](Cc2c[nH]c3ccccc23)NC(=O)[C@H](Cc2ccc(O)cc2)NC(=O)[C@H](CCC(=O)O)NC1=O)[C@@H](C)O (single isomer, unassigned) [compound 357]
IC50 ([1]; read-out: IC50 (MDM2)): < 10 nM | Ki ([1]; read-out: Ki (MDM2)): < 10 nM | IC50 ([2]; read-out: IC50 (MDMX)): 10 to 100 nM | Ki ([2]; read-out: Ki (MDMX)): < 10 nM | 6.25 uM % Lysed cells (1 h LDH) [3]: 0% | 25 uM % Lysed cells (1 h LDH) [3]: 0% | 50 uM % Lysed cells (1 h LDH) [3]: 0% | caspase 0.3 uM [4]: 2 | caspase 1 uM [4]: 7 | caspase 3 uM [4]: 11 | caspase 10 uM [4]: 15 | caspase 30 uM [4]: 23
